Results from US9850271B2, “Crystalline solvate forms of a pharmaceutical” (NeurMedix, Inc., priority 2008, dated 2017).

Experiment: Brief thermal stress of amorphous solid (physical stability)
Assay type: physicochemical
Settings: brief thermal stress at 40° C.

In the case of `C#C[C@]1(O)CC[C@H]2[C@@H]3[C@@H](O)C=C4C[C@@H](O)CC[C@]4(C)[C@H]3CC[C@@]21C` [amorphous Compound 1, 17α-ethynyl-androst-5-ene-3β,7β,17β-triol], the “solid state form after brief thermal stress” value was “resulted in crystalline material that contains Form I”.
